Test results: patent publication US10765638B2, “Particle formulation with polycation complex” (Yale University, priority 2017, dated 2020)

Legend:
[1] = test system: PC9-GR cells; experiment: Apoptosis by Annexin V flow cytometry; type: cell-based; conditions: NGI-1 treatment alone
Procedure: (§1) Briefly, 1×10^6 cells/sample were collected, washed in PBS, pelleted, and resuspended in incubation buffer (10 mm HEPES/NaOH, pH 7.4, 140 mm NaCl, 2.5 mm CaCl2) containing 1% annexin V and 1% 7-Amino-actinomycin D or propidium iodide, to identify dead cells. […] First-line analysis was performed with Flow Jo software. Approximately 50,000 cells were analyzed per experiment, and the mean value was obtained from 3 independent assays.

[2] = test system: parental PC9 cells; experiment: Apoptosis by Annexin V flow cytometry; type: cell-based; conditions: NGI-1 10 μM, 48 h
Procedure: as §1

[3] = test system: T98G cells; experiment: Cell cycle distribution by flow cytometry; type: cell-based
Procedure: (§2) Cell cycle distribution was determined following treatment with vehicle, radiation and/or 10 uM NGI-1. Cells were trypsinized and centrifuged, washed once with ice-cold PBS, fixed with ice-cold 70% ethanol and stored overnight at −20° C. After washing twice with PBS, they were incubated for 30 minutes at room temperature in 200 μL of Guava Cell Cycle Reagent (Guava Technologies). Cytofluorometric acquisitions were performed on a LSRII cytometer (BD Biosciences). First-line analysis was performed with FlowJo software, upon gating of the events characterized by normal forward and side scatter parameters and discrimination of doublets in a FSC-A vs. FSC-H bivariate plot. Approximately 50,000 cells were analyzed per experiment.

[4] = test system: D54 cells; experiment: Cell cycle distribution by flow cytometry; type: cell-based
Procedure: as §2

[5] = test system: U251 cells; experiment: Cell cycle distribution by flow cytometry; type: cell-based
Procedure: as §2

[6] = test system: D54, SKMG3, T98G or U251 cells; experiment: Glioma cell proliferation (CellTiter 96), NGI-1 alone or with cytotoxic chemotherapy; type: cell-based
Procedure: Radiation (XRT) doses of either 0, 2, 4, or 6 Gy were delivered with a Precision X-ray 320-kV orthovoltage unit at a dose rate of 2 Gy/45 seconds (PXI X-Ray Systems). Twenty-four hours following XRT cells were washed, trypsinized, and re-plated in triplicate wells to determine clonogenic survival. […] Growth rates were determined by CellTiter 96 Non-Radioactive Cell Proliferation Assay (Promega; Madison, Wis., USA) according to the manufacturer's directions. For each experiment one thousand cells were seeded in triplicate wells in 96-wells plates. The following day, cell cultures were treated with NGI-1 (1 μM), Temozolomide (TMZ, 10 μM), Etoposide (VP-16, 0.1 μM) or combinations for 5 days. Absorbance at 540 nm was measured using the spectrophotometric reading (BioTek Synergy 2; Winooski, Vt. USA).

[7] = test system: PC-3 [JPC-3]; experiment: Lung cancer cell line viability screen; type: cell-based; conditions: NSCLC, EGFR 747-749 del, read-out: NGI-1 (IC50)
Procedure: (§3) NGI-1 activity was screened in 94 lung cancer cell lines at the Center for Molecular Therapeutics at the Massachusetts General Hospital Center for Cancer Research with previously described methods (Garnett et al., Nature, 483(7391):570-5 (2012)). Briefly, cells were treated in 384-well microplates using 9 serial NGI-1 dilutions, returned to an incubator for 96 hours, then stained with 55 μg/ml resazurin (Sigma) prepared in Glutathione-free media for 4 hours. Fluorescent signal intensity was quantified with a plate reader at excitation and emission wavelengths of 535/595 nm to determine viability. Viability ratio across the 9 doses were fitted to determine the half maximal inhibitory concentration (IC50).

[8] = test system: EMC-BAC-1; experiment: Lung cancer cell line viability screen; type: cell-based; conditions: EMC-BAC-1, NSCLC, ErBB3 Y523C; read-out: NGI-1 (IC50)
Procedure: as §3

[9] = test system: NCI-H2110; experiment: Lung cancer cell line viability screen; type: cell-based; conditions: NCI-H2110, SCLC; read-out: NGI-1 (IC50)
Procedure: as §3

[10] = test system: RERF-LC-MS; experiment: Lung cancer cell line viability screen; type: cell-based; conditions: NSCLC, read-out: NGI-1 (IC50)
Procedure: as §3

[11] = test system: Calu-3; experiment: Lung cancer cell line viability screen; type: cell-based; conditions: Homo sapiens; Calu-3, NSCLC, ErbB2 amplified; read-out: NGI-1 (IC50)
Procedure: as §3

[12] = test system: A-427; experiment: Lung cancer cell line viability screen; type: cell-based; conditions: Homo sapiens; A-427, NSCLC; read-out: NGI-1 (IC50)
Procedure: as §3

[13] = test system: RERF-LC-Sq1; experiment: Lung cancer cell line viability screen; type: cell-based; conditions: RERF-LC-Sq1, NSCLC; read-out: NGI-1 (IC50)
Procedure: as §3

[14] = test system: IST-SL2; experiment: Lung cancer cell line viability screen; type: cell-based; conditions: IST-SL2, SCLC; 96 hours; read-out: NGI-1 (IC50)
Procedure: as §3

[15] = test system: BEN; experiment: Lung cancer cell line viability screen; type: cell-based; conditions: NSCLC, read-out: NGI-1 (IC50)
Procedure: as §3

[16] = test system: SKMG3 cells; experiment: Phospho-γH2AX foci formation after radiation; type: cell-based, human; conditions: 2 hours after 4 Gy, 10 μM NGI-1
Procedure: (§4) To determine histone H2AX phosphorylation (γH2AX), cells were cultured on glass cover slips and pre-treated with either vehicle or NGI-1 for 48 hours followed by radiation treatment. Samples were fixed with 4% neutral-buffered formaldehyde, washed (0.1% triton in PBS for 30 minutes) and incubated for 1 hour with protein-blocking solution (PBS containing 10% normal goat-horse serum; Sigma-Aldrich, Saint Louis, Mich., US). Next, the slides were incubated with primary anti-phospho-histone γH2AX S139 (1:500, Millipore-Upstate, Billerica, Mass., US) followed by incubation with secondary antibody Alexa Fluor 555-conjugated goat anti-mouse IgG (1:750, Molecular probes/Invitrogen, Carlsbad, Calif., US), for 1 hour at room temperature. Nuclei were stained using DAPI containing vectashield mounting solution (Vector Labs). Confocal cellular images were captured with an inverted Zeiss LSM 510 Pascal laser confocal microscope (C. Zeiss, Jenna, Germany), using a 63/1.4 plan-apochromat objective. Five randomly selected fields s per slide were analyzed. Cells were counted using the ImageJ program, public domain Java image processing software.

[17] = test system: T98G cells; experiment: Phospho-γH2AX foci formation after radiation; type: cell-based; conditions: 2 hours after 4 Gy, 10 μM NGI-1
Procedure: as §4

[18] = test system: D54 cells; experiment: Phospho-γH2AX foci formation after radiation; type: cell-based
Procedure: as §4

[19] = test system: U251 cells; experiment: Phospho-γH2AX foci formation after radiation; type: cell-based; conditions: 2 hours after 4 Gy, 10 μM NGI-1
Procedure: as §4

Question: How did the induction of apoptosis [1] turn out when `Cc1cnc(NC(=O)c2cc(S(=O)(=O)N(C)C)ccc2N2CCCC2)s1` [NGI-1, 5-(dimethylsulfamoyl)-N-(5-methyl-1,3-thiazol-2-yl)-2-(pyrrolidin-1-yl)benzamide] was run?
Answer: Its induction of apoptosis is “no pro-apoptotic effect”.

Question: And the induction of apoptosis [2]?
Answer: Its induction of apoptosis is “does not induce apoptosis”.

Question: What about the G1 arrest ([3]; 48 hours of NGI-1) of the same compound?
Answer: Its G1 arrest is “no arrest”.

Question: And the “G1 arrest six hours after 4 Gy” value ([3]; NGI-1 + 4 Gy)?
Answer: Its value is “not for either the T98G or U251 cells”.

Question: And the “cells in G1 (G1 arrest)” value ([4]; 48 hours of 10 uM NGI-1, control 75%)?
Answer: Its value is 83%.

Question: What about the “cells in G1 six hours after 4 Gy” value ([4]; NGI-1 + 4 Gy, 66% without NGI-1) of the same compound?
Answer: The value was 77%.

Question: And the “cells in G1 (G1 arrest)” value ([5]; 48 hours of 10 uM NGI-1, printed 64% vs. 72%)?
Answer: Its value is 64%.

Question: And the “G1 arrest six hours after 4 Gy” value ([5]; NGI-1 + 4 Gy)?
Answer: The value was “not for either the T98G or U251 cells”.

Question: And the “glioma cell line proliferation, dose response” value ([6]; D54, SKMG3, U251 and T98G, 5 days of drug exposure)?
Answer: Its value is “sensitive”.

Question: What about the “proliferation, NGI-1 combined with TMZ or VP-16” value ([6]; D54 and SKMG3, NGI-1 1 μM with TMZ 10 μM or VP-16 0.1 μM, 5 days, not synergistic) of the same compound?
Answer: Its value is “further reduced glioma cell proliferation”.

Question: What about the “enhancement of the anti-proliferative effects of TMZ or VP-16” value ([6]; T98G or U251 cells, NGI-1 1 μM, 5 days) of the same compound?
Answer: The value was “did not enhance”.

Question: What about the IC50 [7] of the same compound?
Answer: The IC50 was 4.9 µM.

Question: And the IC50 [8]?
Answer: The IC50 was 4.1 µM.

Question: And the IC50 [9]?
Answer: Its IC50 is 9.01 µM.

Question: And the IC50 [10]?
Answer: Its IC50 is 8.07 µM.

Question: And the IC50 [11]?
Answer: Its IC50 is 8.71 µM.

Question: What about the IC50 [12] of the same compound?
Answer: Its IC50 is 4.92 µM.

Question: And the IC50 [13]?
Answer: Its IC50 is 7.39 µM.

Question: What about the IC50 [14] of the same compound?
Answer: Its IC50 is 2.63 µM.

Question: And the IC50 [15]?
Answer: The IC50 was 9.72 µM.

Question: What about the “increase of phospho-γH2AX foci formation compared to radiation alone (factor)” value [16] of the same compound?
Answer: Its value is 1.2.

Question: What about the “enhancement of phospho-γH2AX foci formation” value [17] of the same compound?
Answer: Its value is “no enhancement”.

Question: And the “increase of phospho-γH2AX foci formation, time course” value ([18]; 4 Gy + 10 μM NGI-1, radiation alone 6.4-fold)?
Answer: Its value is 8.6 fold.

Question: What about the “increase of phospho-γH2AX foci formation compared to radiation alone (factor)” value ([18]; 2 hours after 4 Gy, 10 μM NGI-1) of the same compound?
Answer: Its value is 1.3.

Question: What about the “enhancement of phospho-γH2AX foci formation” value [19] of the same compound?
Answer: The value was “no enhancement”.
